# Data as given in US8044022B2, “Hyaluronic acid binding peptides enhance host defense against pathogenic bacteria” (priority 2005, dated 2011).
# Tests used:
# S. aureus PS80 = assay: Modified NCCLS macrodilution broth method, antimicrobial activity; type: cell-based, Staphylococcus aureus; details: 1, 10 and 100 ug/mL; quantitative cultures at 4, 8, 24 h; vs controls without HABPs
# Method: The antimicrobial activity of HABP35 and HABP53 was determined using a modified National Committee for Clinical Laboratory Standards (NCCLS) macrodilution broth method. S. aureus PS80 was grown overnight on tryptic soy agar plates containing 5% sheep blood. Colonies were suspended in sterile saline and dilutions made to achieve a final concentration of 5×10^5 CFU/ml in each tube containing 5 ml of Mueller-Hinton and BP35 or 53. The HABPs were tested at 1, 10, and 100 ug/mL concentrations. Once inoculated, the tubes were incubated in ambient air at 37° C. and bacterial concentration determined at 4, 8, and 24 hours. Modification of testing parameters included the 10 fold dilution of the HABPs and the determination of bacterial counts at 4, 8 and 24 hours rather than the visual determination of growth or inhibition.
# S. aureus strain PS80 = assay: Mouse model of S. aureus surgical wound infection; type: in vivo, C57BL6 mice
# Method: Bacterial strains. S. aureus strain PS80 (serotype 8) was obtained from the American Type Culture collection (#27700) and is a potent inducer of intraabdominal abscess formation. S. aureus COL is a methicillin resistant strain that produces a serotype 5 capsule. Staphylococci were cultivated for 24 h at 37° C. on Columbia agar (Difco Laboratories, Detroit, Mich.) supplemented with 2% NaCl.
# Mouse model of S. aureus wound infection. Mice (C57BL6, male, 6-8 wk old) were obtained from Jackson Laboratories (Bar Harbor, Me.). Groups of mice (N=4/group/experiment) were anesthetized with 100 mg/kg ketamine and 10 mg/kg xylazine, their right thighs were shaved, and the surgical area was disinfected with iodine and 70% ethanol. An incision was made in the skin to expose the thigh muscle, and a 1-cm incision was made with a scalpel into the thigh muscle to the depth of the bone. The muscle was then closed with one 4-0 silk suture, and 10 μl of a S. aureus suspension ranging in dose from 10^2 to 10^4 CFU was introduced into the incision under the suture. The skin was closed with four additional Prolene sutures. The mice were euthanized at 3 days post-surgery. The wounded muscle tissue was excised, weighed (˜0.08 g), and homogenized in 1 ml of tryptic soy broth. Serial dilutions of the homogenates were plated in duplicate and results were expressed as CFU/g tissue. Peptides were administered to animals in two ways. For most experiments, HABPs were solubilized in PBS and administered with a pipet into the wound in a 10 μl volume following challenge with bacteria. A 100 μg dose was used for most experiments. For therapeutic studies, peptide was administered via a 1 ml tuberculin syringe fitted with a 25 gauge needle in a 0.25 ml volume injected into the thigh muscle containing the wound distal from the incision site.
# Gross pathology and histologic analysis of host response. […] Histological examination of these wounds confirmed these findings. Muscle tissue was harvested from mice at designated intervals post-surgery, fixed in 10% buffered formalin, and mounted in paraffin; 5 to 6-μm sections were cut and stained with hematoxylin and eosin for microscopic examination. […] The cellular infiltrate was primarily comprised of PMNs and fibrin.
# Statistical analyses. All animal experiments were performed at least two times and the data pooled. Comparison of S. aureus CFU/g tissue was made by the Welch modification of the unpaired Student t test (InStat, GraphPad Software, San Diego, Calif.).
# leukocyte adhesion to HA = details: cited from earlier work
# contact hypersensitivity = details: mice; cited from earlier work
sequence,measurement,setting,value
GAHWQFNALTVRGGGS [HABP52],growth of S. aureus,S. aureus PS80,not inhibited
same,bacterial burden at the wound site compared with PBS,"S. aureus strain PS80; 100 μg into wound at time of challenge with 10^2 CFU, 3 days later",significant decrease
same,log reduction in bacterial numbers vs PBS,"S. aureus strain PS80; challenge with 10^3 CFU, 3 days",~3 log
same,leukocyte adhesion to HA,leukocyte adhesion to HA,inhibit leukocyte adhesion to HA
same,contact hypersensitivity responses,contact hypersensitivity,inhibits contact hypersensitivity responses
